Measured values taken from US8372580B2, “BRCA1 function-based cellular assays” (Morehouse School of Medicine, priority 2008, dated 2013).

Key:
[1] = tested on: ERα transcriptional activity in T47D breast cancer cells; experiment: Cell based assay #2: ERE-luciferase reporter, E2-induced ERα activation by Ubc9 C93S; details: Ubc9 C93S (SUMO-independent), E2 1 μM
Procedure: T47D cells (5×10^5) were plated in 6-well plates for 24 hours. The cells were washed twice in PBS followed by the addition of phenol red free DMEM containing 5% charcoal-stripped FBS for 48 hrs before transfection. The cells were transfected with 1 μg of each of the indicated plasmids (with a total of 2.5 μg DNA) using lipofectamine 2000 (Life Technology, USA). The cells were induced with 1 μM of E2 4 hours after transfections, harvested after an additional 40 hrs and assayed for luciferase activity following the manufacturer's instructions. Each set of experiments was performed in triplicate and repeated a least three times.

[2] = target: T1, Ubc9 (Homo sapiens, UniProt P63279); experiment: GST capture (pull-down) assay of binding to Ubc9; details: in vitro translated full length protein
T1 construct: made in house; host or cells: E. coli
T1 sequence (P63279 whole entry, species assumed): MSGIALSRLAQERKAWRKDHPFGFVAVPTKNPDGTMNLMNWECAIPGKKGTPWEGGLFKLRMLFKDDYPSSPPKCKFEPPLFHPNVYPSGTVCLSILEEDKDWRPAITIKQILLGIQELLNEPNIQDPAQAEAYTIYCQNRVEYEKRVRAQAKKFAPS
Excerpt: GST-Ubc9 and GST-ERα (337-379) were expressed and purified from E. coli as described previously (Wang H, Shao N, Ding O M, Cui J, Reddy E S P, Rao V N: BRCA1 proteins are transported to the nucleus in the absence of serum and splice variants BRCA1a, BRCA1b are tyrosine phosphoprotein that associate with E2F, cyclins and cyclin dependent kinases. Oncogene 15, 143-157: 1997.). For in vitro protein binding assay 35 S-Methionine-labeled in vitro translated full length BRCA1, BRCA1a (Chai Y L, Cui J, Chipitsyna G, Liao B, Lui S, Aysola K et al.: C-Fos oncogene regulator Elk-1 interacts with BRCA1 splice variants BRCA 1a/1b and enhances BRCA1a/1b mediated growth suppression in breast cancer cells. Oncogene 20: 1357-1367, 2001.), BRCA1b, BRCA1 Mut#1, BRCA1 Mut#4, BRCA1 1-182, BRCA1 1-182 Mut#1 and BRCA1 1-182 Mut 4 proteins were diluted in binding buffer (20 mM Tris-HCl (pH7.5), 150 mM NaCl, 0.1% Tween 20). The proteins were precleared with GSH beads for 30 min and then incubated with GST or various GST-ER (337-379) proteins beads for 2 hours at 4° C. The beads were then washed three times with binding buffer followed by elution of the bound proteins with SDS sample buffer and loaded on a 15% SDS-PAGE. The gels were fixed, treated with enhance, dried and exposed 9 to X-ray films) and scanned using a Fuji BioImaging analyzer. […]

| Substance | inhibition of E2-mediated ERα transcription activation by Ubc9/C93S [1] | binding to Ubc9 [2] |
| --- | --- | --- |
| BRCA1 Mutant #1: BRCA1 point mutant 1; apparently SUMO acceptor site mutation lysine (K) 109 to arginine (R) | unlike their respective Mut #1 and Mut#4, inhibit |  |
| BRCA1 Mutant #4: full length BRCA1 with RING domain cancer-predisposing mutation C61G | unlike their respective Mut #1 and Mut#4, inhibit | did not observe any significant binding |
| BRCA1: full-length product of the BRCA1 (breast cancer 1) tumor suppressor gene | inhibit E2-mediated ERα transcription activation by Ubc9/C93S |  |
